Laboratory results: US20090209538A1, “THERAPEUTIC SUBSTITUTED LACTAMS” (ALLERGAN, INC., priority 2008, published 2009)
“Also recorded” adds a separate entry of the source.

Test system: patients having glaucoma (lashes and adjacent hairs)
Assay: Clinical observation of lash and hair growth in glaucoma patients treated in one eye
Type: in vivo, humans
Details: glaucoma patients treated unilaterally; treated versus control areas
Source text: In the course of treating patients having glaucoma, treatment may only be appropriate in one eye. […] The lash appearance on the lids of the treated eyes would have appeared quite attractive if it represented a bilateral phenomenon. As a result of its asymmetric nature, the long lashes on one side could be construed as disturbing from a cosmetic standpoint. A systemic examination was preformed as a result of the asymmetric phenomenon. It soon became apparent that this altered appearance was not an isolated finding. […] Definite differences could be identified to varying degrees in the lashes and adjacent hairs of all patients who were taking the drug on a unilateral basis for longer than 6 months.
The changes in the lashes were apparent on gross inspection in several patients once attention was focused on the issue. In those with light colored hair and lashes, the differences were only seen easily with the aid of the high magnification and lighting capabilities of the slit lamp biomicroscope. In the course of glaucoma follow-up examination, attention is generally immediately focused on the eye itself. As a result of the high power magnification needed only one eye is seen at a time and the eye is seen at a high enough power that the lashes are not in focus. […]

CCNC(=O)CCC/C=C\C[C@@H]1[C@@H](/C=C/[C@@H](O)CCc2ccccc2)[C@H](O)C[C@@H]1O [bimatoprost]
lash / hair growth in treated eye versus non-treated eye: longer, thicker, and fuller in the treated eye than in the non-treated eye; also recorded: hair growth is stimulated
